Data published in US20150099800A1, “NOVEL LIPASE INHIBITORS, REPORTER SUBSTRATES AND USES THEREOF” (Northeastern University, priority 2012, published 2015).
Where two headings read alike, the source gives them in different places.

Assays:
[1] = biological target: T1, rFAAH (Rattus norvegicus, UniProt P97612); test: rFAAH coumarin substrate fluorescence assay; type: biochemical
T1 construct: His (N); made in house; host or cells: E. coli (cell line provided by the Cravatt group)
T1 sequence (P97612 30-579 limits assumed): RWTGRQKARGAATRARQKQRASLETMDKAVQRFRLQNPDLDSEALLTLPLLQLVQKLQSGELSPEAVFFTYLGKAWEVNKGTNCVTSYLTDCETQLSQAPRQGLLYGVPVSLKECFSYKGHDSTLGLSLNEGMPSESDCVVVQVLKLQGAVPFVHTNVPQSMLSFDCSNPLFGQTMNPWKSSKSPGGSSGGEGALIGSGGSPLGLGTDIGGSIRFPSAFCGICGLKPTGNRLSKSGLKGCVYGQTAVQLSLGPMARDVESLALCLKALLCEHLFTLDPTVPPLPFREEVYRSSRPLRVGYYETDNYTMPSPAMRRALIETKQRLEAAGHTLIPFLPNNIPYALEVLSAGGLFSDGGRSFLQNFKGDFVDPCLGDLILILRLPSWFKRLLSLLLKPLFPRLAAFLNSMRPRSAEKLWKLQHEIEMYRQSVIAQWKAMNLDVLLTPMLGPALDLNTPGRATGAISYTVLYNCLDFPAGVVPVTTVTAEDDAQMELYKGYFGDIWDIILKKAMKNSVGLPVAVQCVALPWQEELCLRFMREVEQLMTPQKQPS

[2] = tested on: Lipoprotein Lipase (Bacterial); type: biochemical, Pseudomonas sp.
[3] = biological target: T2, hDAGLα (Homo sapiens, UniProt Q9Y4D2)
T2 sequence (Q9Y4D2 1-1042): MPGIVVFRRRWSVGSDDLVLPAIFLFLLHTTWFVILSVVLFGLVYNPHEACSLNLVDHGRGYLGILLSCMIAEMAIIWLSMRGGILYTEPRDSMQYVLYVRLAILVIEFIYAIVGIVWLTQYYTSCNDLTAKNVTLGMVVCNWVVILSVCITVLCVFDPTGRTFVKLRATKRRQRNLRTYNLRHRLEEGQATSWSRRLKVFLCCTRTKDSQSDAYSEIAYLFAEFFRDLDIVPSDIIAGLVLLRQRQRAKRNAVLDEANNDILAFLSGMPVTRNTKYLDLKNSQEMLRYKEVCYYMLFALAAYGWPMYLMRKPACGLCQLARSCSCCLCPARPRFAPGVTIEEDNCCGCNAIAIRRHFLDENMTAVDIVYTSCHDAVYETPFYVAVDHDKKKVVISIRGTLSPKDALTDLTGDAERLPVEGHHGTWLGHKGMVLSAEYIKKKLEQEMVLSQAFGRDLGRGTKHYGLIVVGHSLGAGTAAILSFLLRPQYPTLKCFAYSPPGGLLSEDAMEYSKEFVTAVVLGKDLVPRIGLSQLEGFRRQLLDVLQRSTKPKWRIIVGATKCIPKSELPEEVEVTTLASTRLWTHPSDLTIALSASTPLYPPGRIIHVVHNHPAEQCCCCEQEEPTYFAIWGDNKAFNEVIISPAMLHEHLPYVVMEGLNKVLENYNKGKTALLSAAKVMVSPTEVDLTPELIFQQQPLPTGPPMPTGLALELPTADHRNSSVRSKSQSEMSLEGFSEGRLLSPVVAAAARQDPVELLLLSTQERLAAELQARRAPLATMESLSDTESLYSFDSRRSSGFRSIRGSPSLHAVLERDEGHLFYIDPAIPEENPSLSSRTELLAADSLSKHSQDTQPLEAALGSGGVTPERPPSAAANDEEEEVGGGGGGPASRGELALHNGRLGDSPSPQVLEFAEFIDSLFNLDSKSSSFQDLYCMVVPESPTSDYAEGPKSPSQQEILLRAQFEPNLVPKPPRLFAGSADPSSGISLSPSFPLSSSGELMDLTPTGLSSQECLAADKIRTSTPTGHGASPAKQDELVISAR

[4] = biological target: T3, mDAGLα (Mus musculus, UniProt Q6WQJ1); test: Radio-TLC assay with [14C]SAG substrate, mDAGLα; conditions: for potency for mDAGLα relative to analogs of (S)-α-amino acids: 10 nM to 10 μM
T3 sequence (Q6WQJ1 1-1044): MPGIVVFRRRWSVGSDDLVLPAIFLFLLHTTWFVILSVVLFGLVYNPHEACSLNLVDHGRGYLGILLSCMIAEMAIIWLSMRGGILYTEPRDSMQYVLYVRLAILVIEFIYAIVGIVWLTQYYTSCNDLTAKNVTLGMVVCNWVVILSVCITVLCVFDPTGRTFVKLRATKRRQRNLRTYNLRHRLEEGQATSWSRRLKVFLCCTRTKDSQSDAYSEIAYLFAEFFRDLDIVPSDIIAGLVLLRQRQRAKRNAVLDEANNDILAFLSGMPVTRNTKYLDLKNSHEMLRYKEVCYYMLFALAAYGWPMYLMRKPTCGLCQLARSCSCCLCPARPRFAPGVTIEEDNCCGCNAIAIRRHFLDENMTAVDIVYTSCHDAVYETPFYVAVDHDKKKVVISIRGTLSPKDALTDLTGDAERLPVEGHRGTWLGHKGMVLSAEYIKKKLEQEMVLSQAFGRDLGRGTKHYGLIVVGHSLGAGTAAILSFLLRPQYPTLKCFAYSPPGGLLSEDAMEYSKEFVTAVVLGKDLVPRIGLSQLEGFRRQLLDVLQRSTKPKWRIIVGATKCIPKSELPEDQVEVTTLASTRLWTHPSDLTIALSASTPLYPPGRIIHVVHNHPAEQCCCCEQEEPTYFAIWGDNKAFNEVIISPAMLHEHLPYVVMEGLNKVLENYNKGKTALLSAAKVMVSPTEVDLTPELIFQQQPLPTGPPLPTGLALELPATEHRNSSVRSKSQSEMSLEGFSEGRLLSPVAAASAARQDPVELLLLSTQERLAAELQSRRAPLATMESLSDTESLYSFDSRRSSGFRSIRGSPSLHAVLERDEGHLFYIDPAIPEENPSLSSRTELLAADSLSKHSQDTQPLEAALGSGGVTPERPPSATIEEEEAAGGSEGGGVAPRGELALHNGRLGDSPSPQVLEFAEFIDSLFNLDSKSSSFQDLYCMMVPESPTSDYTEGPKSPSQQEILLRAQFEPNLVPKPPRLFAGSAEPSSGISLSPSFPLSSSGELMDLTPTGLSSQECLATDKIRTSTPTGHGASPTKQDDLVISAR

[5] = 10 μM, 0.05% Triton X-100 present

Row | SMILES | rFAAH inhibition at 10 μM (%) [1] | Lipoprotein Lipase (Bacterial) inhibition at 10 μM (%) [2] [%] | hDAGLα inhibition at 10 μM TLC (with Triton X-100) (%) [3] | inhibition of hDAGLα in radio-TLC assays [3] | mDAGLα inhibition at 10000 nM (%) [4] [%] | rFAAH inhibition at 10 μM (%) ([1]; 10 μM) | Lipoprotein Lipase (Bacterial) inhibition at 10 μM (%) ([2]; 10 μM) | hDAGLα inhibition at 10 μM TLC (with Triton X-100) (%) [3, 5] | mDAGLα inhibition at 10 nM (%) [4] [%] | potency for mDAGLα relative to analogs of (S)-α-amino acids [4] | mDAGLα inhibition at 100 nM (%) [4] [%] | mDAGLα inhibition at 1000 nM (%) [4] [%] | mDAGLα inhibition at 10000 nM (%) ([4]; 10000 nM) | inhibition at 10 µM ([1]; read-out: rFAAH inhibition at 10 μM (%)) [%] | inhibition of bacterial lipoprotein lipase, FRET ([2]; preliminary studies) | IC50 ([2]; reporter compound (17), read-out: apparent IC50 with lipoprotein lipase, FRET assay) [nM] | inhibition of hDAGLα at 10 μM ([3]; 10 μM) | inhibition at 0.01 µM ([4]; read-out: mDAGLα inhibition at 10 nM (%)) [%] | inhibition at 0.1 µM ([4]; read-out: mDAGLα inhibition at 100 nM (%)) [%]
1 | O=C(Oc1ccc([N+](=O)[O-])cc1)N1CCC(C(O)(c2ccc3c(c2)OCO3)c2ccc3c(c2)OCO3)CC1 [JZL184] | 97^E % | 36 | (37^B) % | poor inhibitors | 3 |  |  |  |  |  |  |  |  |  |  |  |  |  | 
2 | CCCCCCCCCCC[C@@H](C[C@@H]1OC(=O)[C@H]1CCCCCC)OC(=O)[C@H](NC=O)[C@@H](C)CC [Compound 7] |  |  |  |  |  | 0 | 68 | (86^A) % | 19 | clearly less potent | 51 | 75 | 90 |  |  |  |  |  | 
3 | CCCCCCCCCCCC(CC1OC(=O)C1CCCCCC)OC(=O)C(NC=O)C(C)CC (stereo not drawn) [Compound 6] |  |  |  |  |  | 28 | 86 | (78^A) % | 33 | clearly less potent | 29 | 69 | 85 |  |  |  |  |  | 
4 | CCCCCCCCCCC[C@@H](C[C@@H]1OC(=O)[C@H]1CCCCCC)OC(=O)[C@H](CC(C)C)NC=O [Compound 3, tetrahydrolipstatin] |  |  |  |  |  |  |  |  |  |  |  |  |  | 6 | potent inhibition | ~100 | complete inhibition | 55 | 72
